Measurements taken from patent US20240308960A1 (Sumitomo Pharma Co., Ltd., priority 2021, published 2024).

Biological target: T1, Human orexin receptor type 2 (Homo sapiens, UniProt O43614)
T1 sequence (O43614 1-444): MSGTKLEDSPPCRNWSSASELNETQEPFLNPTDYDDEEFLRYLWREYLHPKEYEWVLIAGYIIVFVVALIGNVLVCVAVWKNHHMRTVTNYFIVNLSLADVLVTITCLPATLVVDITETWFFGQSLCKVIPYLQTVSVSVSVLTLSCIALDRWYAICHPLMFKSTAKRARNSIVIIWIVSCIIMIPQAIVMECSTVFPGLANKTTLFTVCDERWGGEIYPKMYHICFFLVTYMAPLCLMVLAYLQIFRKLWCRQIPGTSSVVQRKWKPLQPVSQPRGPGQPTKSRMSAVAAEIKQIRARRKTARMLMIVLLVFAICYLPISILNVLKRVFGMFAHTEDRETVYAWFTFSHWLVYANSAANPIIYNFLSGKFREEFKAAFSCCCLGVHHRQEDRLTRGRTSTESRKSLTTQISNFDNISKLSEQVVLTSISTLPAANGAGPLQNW
Experiment: Test Example 2: agonist activity for orexin receptor type 2 (aequorin luminescence, intracellular calcium mobilization)
Assay type: cell-based
Design: expressed in transfected cells; host or cells: CHO cells (transient expression)
Conditions: compound 10 μm; CHO cells transiently expressing human orexin receptor type 2 and apoaequorin; relative percentage of luminescence for the luminescence (100%) of Orexin A (100 pM)
Experimental: Test Example 2: Measurement of Agonist Activity for Orexin Receptor 2 Type
Human orexin receptor type 2 and apoaequorin were transiently expressed in CHO cells, and the agonist activity was evaluated based on intracellular calcium mobilization with ligand stimulation. The CHO cells transiently-expressed human orexin receptor type 2 and apoaequorin were seeded on a 384-well plate by 2,000 cells/well, and then incubated for 16-22 hours. After the plate was returned to room temperature, Coelenterazine hcp (final concentration: 1 μM) was added to the plate, and the plate was allowed to stand at room temperature for 2 hours. And then, Orexin A (PEPTIDE INSTITUTE, INC., Lot. 671009) or each test compound was added to the plate, and the luminescence of the cells was measured with FDSS7000 (Hamamatsu Photonics K. K.), wherein Orexin A and each test compound were dissolved in DMSO (final concentration: 0.1%), and diluted with a buffer (Hanks, 20 mM HEPES, 0.1% BSA).

Agonist Activity (%) | Structure (SMILES)
444 | CC(C)N1CCN(c2cccc(Cl)c2NC(=O)N2C[C@H]3C[C@H](c4noc(C5CC5)n4)C[C@H]3C2)CC1 [Example 169, (3aR,5s,6aS)-N-{2-chloro-6-[4-(propan-2-yl)piperazin-1-yl]phenyl}-5-(5-cyclopropyl-1,2,4-oxadiazol-13-yl) hexahydrocyclopenta [c]pyrrol-2 (1H)-carboxamide]
357 | CC(C)N1CCN(c2cccc(Cl)c2NC(=O)N2C[C@H]3C[C@@H](c4noc(C5CC5)n4)C[C@H]3C2)CC1 [Example 170, (3aR,5r,6aS)-N-{2-chloro-6-[4-(propan-2-yl)piperazin-1-yl]phenyl}-5-(5-cyclopropyl-1,2,4-oxadiazol-13-yl) hexahydrocyclopenta [c]pyrrol-2 (1H)-carboxamide]
